IC50 and Kd data for 9 compounds are collected here from patent US10562844B2, “HYPDH inhibitors and methods of use for the treatment of kidney stones” (Wake Forest University Health Sciences, priority 2015, dated 2020).

T1 sequence (Q9UF12 71-439 limits assumed): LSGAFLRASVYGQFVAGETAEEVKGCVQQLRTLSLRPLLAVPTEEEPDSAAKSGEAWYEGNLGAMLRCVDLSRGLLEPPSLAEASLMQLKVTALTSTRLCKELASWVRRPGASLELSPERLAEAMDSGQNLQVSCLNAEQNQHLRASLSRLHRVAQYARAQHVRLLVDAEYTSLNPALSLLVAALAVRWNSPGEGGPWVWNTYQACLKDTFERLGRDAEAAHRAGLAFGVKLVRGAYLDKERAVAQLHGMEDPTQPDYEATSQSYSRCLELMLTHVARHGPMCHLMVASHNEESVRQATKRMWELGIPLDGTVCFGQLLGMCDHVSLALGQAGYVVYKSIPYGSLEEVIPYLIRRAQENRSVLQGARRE

The first experiment concerns the target T1, human HYPDH (Homo sapiens (Human), UniProt Q9UF12). The experiment in a line: HYPDH inhibition activity assay (inhibitor pre-incubated 5 min, reaction started with Hyp). It counts as biochemical. The settings on record: inhibitor pre-incubated with HYPDH for 5 min; reaction started by addition of 600 mM Hyp. The text has this:
(§1) Despite the identification of the Hyp pathway in rat and bovine kidneys and livers over 50 years ago, very little is known about human HYPDH (also known as PRODH2 and hydroxyproline oxidase, HPOX, in the literature) (Miyata et al., Proc Natl Acad Sci USA 111, 14406-14411, 2014; Efron et al., New Engl J Med 272, 1299-1309; Pelkonen et al., New Engl J Med 283, 451-456, 1970). In an effort to biochemically and structurally characterize human HYPDH, we have evaluated numerous expression constructs (>15) in Escherichia coli with N- and C-terminal truncations. […] Only the constructs containing the residues 147-515 and 156-515 were >96% loaded with FAD+ and active.
Each inhibitor was pre-incubated with HYPDH for 5 min, and the reaction started by the addition of 600 mM Hyp. A range of concentrations was tested in order to determine the IC50 value. Table 1 lists the potency of the compounds.
In the case of `O=C(O)C1CCCO1` (stereo not drawn) [Compound 2], the half-maximal inhibitory concentration (IC50) amounted to 1500 ± 100 µM.

Compound `O=C(O)C1CCC(O)C1` (stereo not drawn) [Compound 5] registered a half-inhibitory concentration (IC50) of 2100 ± 100 µM.

`O=C(O)C1CC[C@@H](O)C1` (stereo partly drawn) [Compound 6] gave an IC50 of over 10000 µM.

Compound `O=C(O)C1CC[C@H](O)C1` (stereo partly drawn) [Compound 7] came in with an IC50 of 600 ± 10 µM.

As to `O=C(O)C[C@H]1CC[C@H](O)C1` [Compound 8], the 50% inhibitory concentration (IC50) stood at 480 ± 10 µM.

Compound `N[C@H]1CCC(C(=O)O)C1` (stereo partly drawn) [Compound 9] had a 50% inhibitory concentration (IC50) of 630 ± 10 µM.

Take `O=C1CCC(C(=O)O)C1` (stereo not drawn) [Compound 10]: the IC50 was 380 ± 10 µM.

For `O=C1CC[C@@H](C(=O)O)C1` [Compound 11], the IC50 was determined as 370 ± 10 µM.

For another experiment, the target named is T1, human HYPDH. The experiment in a line: Anaerobic titration of the FAD+ spectrum of recombinant HYPDH. It counts as binding.
Settings: not given
Source text: as §1
`O=C(O)C1CC(O)CN1` (stereo not drawn) [Hyp, Hydroxyproline]: the dissociation constant (Kd) was 125 µM.

By IC50 is commonly meant the concentration at which inhibition is half-maximal. A low value points to inhibition by little substance. In general, Kd refers to the constant that tells how readily two partners part at equilibrium.
